Experimental data as given in patent US9518283B1, “Selective enrichment media and uses thereof” (priority 2012, dated 2016).

Columns and labels:
[1] = tested on: Shiga toxin-producing E. coli and Salmonella; format: cell-based
[2] = tested on: non-Salmonella gram negative species; assay: Media formulations / selective agents tested against competitor species; format: cell-based
Method: Several media formulations were tested for permitting growth of Salmonella while inhibiting growth of non-Salmonella species. […] To minimize the potential of such environmental microflora to contribute to false positive reactions in selective indicator media, flavonoid compounds were investigated. Myricetin was tested as a potential suitable inhibitor for at least some of these gram negative species.

SMILES: O=C1CN(N=Cc2ccc([N+](=O)[O-])o2)C(=O)N1 [nitrofurantoin, 1-[[(5-Nitro-2-furanyl)methylene]amino]-2,4-imidazolidinedione]
- effectiveness against Shiga toxin-producing E. coli and Salmonella [1]: surprisingly ineffective

SMILES: CCN(CC)c1ccc(C(=C2C=CC(=[N+](CC)CC)C=C2)c2ccccc2)cc1 [Brilliant green]
- effect against Shiga toxin-producing E. coli (or Salmonella) [1]: no effect

SMILES: O=c1c(O)c(-c2cc(O)c(O)c(O)c2)oc2cc(O)cc(O)c12 [Myricetin]
- effectiveness as inhibitor ([2]; Citrobacter and E. coli inactive isolates): of little use
- inhibition ([2]; Enterobacter and Klebsiella spp.): inhibits
- effectiveness as inhibitor ([2]; K. oxytoca and E. aerogenes): effective
